Measurements: patent US5196513A, “Synthetic peptides derived from the beta-subunit of human thyroid stimulating hormone” (Mayo Foundation for Medical Education and Research, priority 1991, dated 1993)
Residues, ends and D or L forms follow the SMILES beside them.

How the values were obtained:
[1] = target: T1, EGF thyroid membrane receptor (Sus scrofa, UniProt A0A5G2R2I8); test: Porcine thyroid membrane epidermal growth factor radio-receptor assay; assay type: binding; settings: [125I]iodo-EGF, read-out: EC50 of unlabeled EGF in EGF RRA
T1 construct: The incubation mixture consisted of 40 mg eq crude thyroid membrane; tissue Pel-Freez Biologicals; host or cells: porcine thyroid glands, crude membrane preparation
Description: (§1) Frozen porcine thyroid glands were purchased (Pel-Freez Biologicals, Rogers, Ak.) and prepared using the same procedures as for the human glands.
The EGF RRA was a modification of that described by Humphries et al., J. Endocrinol., 102:857-61 (1984), the disclosure of which is incorporated by reference herein. Purified murine EGF (a gift of Dr. N. S. Jiang, Mayo Clinic) was radio-iodinated by a chloramine-T technique to a specific activity of 65 μCi/μg. The incubation mixture consisted of 40 mg eq crude thyroid membrane, 0.5 ng [^125 I]iodo-EGF, and the indicated concentrations of unlabeled EGF or synthetic peptides in 0.5 ml phosphate buffered saline plus 5 mM MgCl2, 1 mM CaCl2, 0.1% BSA, pH 7.4. Non-specific binding was determined by addition of 0.5 μg unlabeled EGF. Bound was separated from free by precipitation with PEG and centrifugation as above.

[2] = target: T2, TSH receptor on human thyroid membranes (Homo sapiens, UniProt P16473); test: Human thyroid membrane TSH radio-receptor assay (inhibition of 125I-bTSH binding); settings: for EC50: concentration inhibiting 125I-bTSH binding to human thyroid membrane by 50%, mean ± se of at least 3 assays; for Inhibition of TSH binding to human thyroid membrane (in words): human thyroid membrane RRA
T2 construct: Crude membrane preparations were prepared from the frozen tissue; from tissue; host or cells: human thyroid tissue (Graves' disease patients), crude 2000 x g membrane fraction
Description: Thyroid tissue from patients with Graves' disease was obtained at surgery and promptly frozen and maintained at -70° C. Crude membrane preparations were prepared from the frozen tissue as previously described, Takahashi et al., J. Clin. Endocrinol. Metab., 47:870-876 (1978), the disclosure of which is incorporated by reference herein. Briefly, the tissue was homogenized with a Polytron homogenizer (Brinkmann Instruments,Westbury, N.Y.), and the 2000×g fraction was collected by centrifugation, washed, and resuspended in 40 mM Tris, 200 mM sucrose, pH 7.4. Membrane preparations were maintained at -70° C. until assay.
(§2) Highly purified bTSH (30 U/mg, supplied by Dr. J. G. Pierce, formerly of UCLA) was radio-iodinated (Na^125 I, Amersham, Chicago) by a lactoperoxidase technique to a specific activity averaging 40-50 μCi/μg as previously described, Takahashi et al., supra, then purified by Sephadex G-100 chromatography.
(§3) The TSH radio-receptor assay (RRA) utilized for the studies has been well described previously; see Takahashi et al., supra and Morris et al., Endocrinology, 123:456-462 (1988), the disclosure of which is incorporated by reference herein. Briefly, for either human or porcine thyroid RRA, the incubation mixture consisted of the following: 10 mg equivalents of wet weight (mg eq) crude thyroid membrane preparation, 0.124 ng [^125 I]iodo-bTSH (approximately 20,000 cpm), 0.2% Triton X-100, and the noted amounts of synthetic peptides or unlabeled bTSH in 0.5 ml 40 mM Tris, 0.1% BSA, pH 7.4. Bound label was separated from free after 2 hrs incubation at 25° C. by addition of a 1 ml 30% polyethylene glycol (PEG, Baker, Phillipsburg, N.J.) 6000 in 1M NaCl and centrifugation. The resulting pellet was counted in a gamma counter. Non-specific binding was determined by addition of a 100 mU/ml crude bTSH (Sigma, St. Louis).

[3] = target: T3, porcine TSH receptor (porcine thyroid membranes) (Sus scrofa, UniProt Q8SPP9); test: Porcine thyroid membrane TSH radio-receptor assay (inhibition of 125I-bTSH binding); settings: concentration inhibiting 125I-bTSH binding to porcine thyroid membrane by 50%; mean ± se of at least 3 assays
T3 construct: Frozen porcine thyroid glands were purchased; tissue Pel-Freez Biologicals; host or cells: porcine thyroid glands, crude membrane preparation
Text: as §1, §2, §3

FRTL5 cells [4] = target: T4, FRTL5 cells (Rattus norvegicus, UniProt P21463); test: TSH bioassay, inhibition of TSH-mediated cAMP generation in FRTL5 cells; assay type: cell-based
Description: (§4) FRTL5 cells were cultured in Hams F-12 medium supplemented with 5% calf serum and a preparation containing 6 hormones (6H), including 10 mU/ml bTSH (Sigma, St. Louis, Mo.), as previously described. Ambesi-Impiombato et al., Proc. Natl. Acad. Sci. U.S.A., 77:3455 (1980), the disclosure of which is incorporated by reference herein. The cells were enzymatically removed from flasks and plated in 24 well plates containing 6H at a density of 150,000 cells per well. After 4 days, the cells were washed and the media replaced with media containing insulin only (1H). All subsequent assays were performed on cells deprived of TSH for 5-7 days.
The TSH bioassay was a modification of assays previously described by Bidey et al., J. Endocrinol., 101:269 (1984); and Kasagi et al., ACTA Endocrinol., 115:30 (1987). FRTL5 cells were washed with NaCl-free Hanks balanced salt solution (NaCl-free HBSS) pH 7.3. The cells were then exposed to purified bovine TSH (bTSH) (a gift from Dr. John Pierce, formerly of UCLA) in the presence and absence of specific β-subunit peptides in NaCl-free HBSS with 0.5 mM isobutylmethylxanthine (IBMX, Sigma, St. Louis, Mo.) and 0.5% BSA (Sigma). The total volume in each well was 275 μl. In stimulation assays, only the β-subunit peptides were added. For inhibition assays, two different concentrations of the β-subunit peptides were added to culture wells in duplicate with 200 mU/I of purified bTSH. The plates were incubated for 2 hours at 37° C. in 5% CO2. The media was removed from the cells and a portion diluted 1:50 in 0.05M NaOAc buffer, pH 6.2. A 25 μl aliquot of this was used in a cAMP RIA. Basal cAMP levels were determined in the absence of the TSH or β-subunit peptides. In inhibition assays, the percent inhibition was calculated as noted below (see Morris et al., (1988) supra): [formula]

FRTL5 cells [5] = target: T4, FRTL5 cells; test: TSab bioassay, inhibition of TSab-stimulated cAMP generation in FRTL5 cells; assay type: cell-based; settings: for Serum samples in which TSab-stimulated cAMP was significantly inhibited (p<0.05) / samples tested: peptide 150 μg/ml; for Inhibition of TSab-stimulated cAMP generation (in words): peptide 50 and 150 μg/ml
Description: as §4
Serum samples from 15 patients with elevated TSab levels were selected from the clinical chemistry laboratory. The TSab values, expressed as an index, [formula] 63:707 (1988)]ranged from 10-20 with an average of 13.8±3.3. Normal serum has an index of less than 1.3.
The bioassay described by Kasagi et al., supra, with modifications as previously noted above, was used. The immunoglobulins were precipitated from 2 ml of TSab-containing serum with 6 ml of polyethylene glycol 6,000 (Baker; Phillipsburg, N.J.), centrifuged at 3,000×g for 20 minutes, and resuspended in 4 ml of NaCl-free HBSS with 0.5 mM IBMX and 0.5% BSA. The plated cells were washed with NaCl-free HBSS and the crude immunoglobulin extract, mixed with various concentrations of β-subunit peptides, was added in duplicate to the wells (total volume 200 μl/well). The cells were incubated for 2 hours at 37° C. and 5% CO2. The samples were then removed from the cells and a portion diluted 1:50 in NaOAc buffer, pH 6.2. A 25 μl aliquot of this was then used in a cAMP RIA as described above. The basal cAMP levels were determined for each plate of cells in the absence of immunoglobulin extract and β-peptides. A maximal cAMP level was attained by stimulating the cells with the immunoglobulin extract only. The percent increase in cAMP levels above basal was calculated as: [formula] as previously described (see Morris et al., supra). The percent inhibition of cAMP production by the β-subunit peptides was calculated as described above for TSH-stimulated cells, substituting pmol cAMP crude immunoglobulin for pmol cAMP TSH.
Inhibition of TSab activity was tested by comparing the replicates of cAMP levels generated in the presence of peptide to those generated by TSab alone using Student's T test for unpaired samples. Mean inhibition by the various doses of synthetic peptide for the patient group was tested by comparison with maximum cAMP response within each patient sample using the T test for paired samples.

T3 sequence (Q8SPP9 22-764): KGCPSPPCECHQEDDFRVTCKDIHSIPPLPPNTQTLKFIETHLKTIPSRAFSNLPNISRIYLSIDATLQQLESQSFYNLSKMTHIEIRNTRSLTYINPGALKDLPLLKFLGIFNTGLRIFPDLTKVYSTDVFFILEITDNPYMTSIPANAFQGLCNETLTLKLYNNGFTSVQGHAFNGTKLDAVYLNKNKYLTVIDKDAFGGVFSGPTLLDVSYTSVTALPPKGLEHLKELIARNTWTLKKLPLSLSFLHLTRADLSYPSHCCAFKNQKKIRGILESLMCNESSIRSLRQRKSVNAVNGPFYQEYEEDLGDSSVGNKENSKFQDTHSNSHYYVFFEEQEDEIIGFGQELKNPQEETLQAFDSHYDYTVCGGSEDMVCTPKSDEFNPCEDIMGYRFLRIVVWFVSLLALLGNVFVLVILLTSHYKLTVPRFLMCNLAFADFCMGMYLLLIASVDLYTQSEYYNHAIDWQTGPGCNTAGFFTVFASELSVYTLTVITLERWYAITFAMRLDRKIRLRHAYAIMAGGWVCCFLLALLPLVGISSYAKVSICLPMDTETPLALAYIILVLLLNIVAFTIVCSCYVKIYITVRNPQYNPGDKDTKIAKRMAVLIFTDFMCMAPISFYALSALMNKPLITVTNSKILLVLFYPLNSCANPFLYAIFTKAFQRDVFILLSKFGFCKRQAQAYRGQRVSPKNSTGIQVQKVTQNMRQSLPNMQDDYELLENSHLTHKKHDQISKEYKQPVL
T4 sequence (P21463 22-764): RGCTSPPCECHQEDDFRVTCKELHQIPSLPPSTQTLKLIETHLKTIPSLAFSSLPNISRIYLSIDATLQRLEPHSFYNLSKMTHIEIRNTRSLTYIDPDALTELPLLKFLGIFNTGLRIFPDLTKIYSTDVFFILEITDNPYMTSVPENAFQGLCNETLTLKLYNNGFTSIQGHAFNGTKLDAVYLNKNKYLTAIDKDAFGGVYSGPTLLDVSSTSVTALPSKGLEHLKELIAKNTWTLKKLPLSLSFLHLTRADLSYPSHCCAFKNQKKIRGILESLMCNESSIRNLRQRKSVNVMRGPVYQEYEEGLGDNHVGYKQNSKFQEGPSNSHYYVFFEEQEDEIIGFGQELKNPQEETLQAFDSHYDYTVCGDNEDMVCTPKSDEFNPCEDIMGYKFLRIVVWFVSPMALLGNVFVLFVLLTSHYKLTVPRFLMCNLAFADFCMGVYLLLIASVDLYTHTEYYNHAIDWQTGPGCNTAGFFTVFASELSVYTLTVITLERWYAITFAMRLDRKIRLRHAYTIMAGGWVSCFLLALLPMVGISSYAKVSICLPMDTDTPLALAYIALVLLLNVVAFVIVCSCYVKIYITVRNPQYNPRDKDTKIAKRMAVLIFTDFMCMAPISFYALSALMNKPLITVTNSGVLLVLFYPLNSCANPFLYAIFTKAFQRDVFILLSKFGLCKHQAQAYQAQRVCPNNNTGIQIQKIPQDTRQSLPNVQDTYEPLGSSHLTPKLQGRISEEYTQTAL
T2 sequence (P16473 21-764): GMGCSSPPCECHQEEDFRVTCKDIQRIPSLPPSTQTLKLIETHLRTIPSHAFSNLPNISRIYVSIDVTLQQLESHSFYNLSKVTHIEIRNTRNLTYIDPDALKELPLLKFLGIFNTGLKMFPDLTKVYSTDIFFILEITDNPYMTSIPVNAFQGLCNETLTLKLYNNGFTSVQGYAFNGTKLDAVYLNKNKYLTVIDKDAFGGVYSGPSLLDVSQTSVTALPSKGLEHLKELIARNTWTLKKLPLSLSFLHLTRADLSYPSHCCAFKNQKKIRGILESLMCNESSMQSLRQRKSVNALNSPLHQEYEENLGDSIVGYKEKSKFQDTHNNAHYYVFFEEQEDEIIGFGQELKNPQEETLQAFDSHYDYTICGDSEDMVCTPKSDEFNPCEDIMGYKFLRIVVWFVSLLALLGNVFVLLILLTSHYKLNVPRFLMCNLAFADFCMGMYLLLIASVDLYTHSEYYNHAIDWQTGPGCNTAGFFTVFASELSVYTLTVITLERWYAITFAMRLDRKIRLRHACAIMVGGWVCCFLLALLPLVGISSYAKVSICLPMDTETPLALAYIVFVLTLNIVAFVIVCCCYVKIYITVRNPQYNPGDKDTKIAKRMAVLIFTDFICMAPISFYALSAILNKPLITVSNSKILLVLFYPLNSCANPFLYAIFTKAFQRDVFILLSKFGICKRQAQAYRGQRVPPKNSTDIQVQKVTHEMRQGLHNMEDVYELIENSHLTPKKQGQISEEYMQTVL
T1 sequence (A0A5G2R2I8 22-1210): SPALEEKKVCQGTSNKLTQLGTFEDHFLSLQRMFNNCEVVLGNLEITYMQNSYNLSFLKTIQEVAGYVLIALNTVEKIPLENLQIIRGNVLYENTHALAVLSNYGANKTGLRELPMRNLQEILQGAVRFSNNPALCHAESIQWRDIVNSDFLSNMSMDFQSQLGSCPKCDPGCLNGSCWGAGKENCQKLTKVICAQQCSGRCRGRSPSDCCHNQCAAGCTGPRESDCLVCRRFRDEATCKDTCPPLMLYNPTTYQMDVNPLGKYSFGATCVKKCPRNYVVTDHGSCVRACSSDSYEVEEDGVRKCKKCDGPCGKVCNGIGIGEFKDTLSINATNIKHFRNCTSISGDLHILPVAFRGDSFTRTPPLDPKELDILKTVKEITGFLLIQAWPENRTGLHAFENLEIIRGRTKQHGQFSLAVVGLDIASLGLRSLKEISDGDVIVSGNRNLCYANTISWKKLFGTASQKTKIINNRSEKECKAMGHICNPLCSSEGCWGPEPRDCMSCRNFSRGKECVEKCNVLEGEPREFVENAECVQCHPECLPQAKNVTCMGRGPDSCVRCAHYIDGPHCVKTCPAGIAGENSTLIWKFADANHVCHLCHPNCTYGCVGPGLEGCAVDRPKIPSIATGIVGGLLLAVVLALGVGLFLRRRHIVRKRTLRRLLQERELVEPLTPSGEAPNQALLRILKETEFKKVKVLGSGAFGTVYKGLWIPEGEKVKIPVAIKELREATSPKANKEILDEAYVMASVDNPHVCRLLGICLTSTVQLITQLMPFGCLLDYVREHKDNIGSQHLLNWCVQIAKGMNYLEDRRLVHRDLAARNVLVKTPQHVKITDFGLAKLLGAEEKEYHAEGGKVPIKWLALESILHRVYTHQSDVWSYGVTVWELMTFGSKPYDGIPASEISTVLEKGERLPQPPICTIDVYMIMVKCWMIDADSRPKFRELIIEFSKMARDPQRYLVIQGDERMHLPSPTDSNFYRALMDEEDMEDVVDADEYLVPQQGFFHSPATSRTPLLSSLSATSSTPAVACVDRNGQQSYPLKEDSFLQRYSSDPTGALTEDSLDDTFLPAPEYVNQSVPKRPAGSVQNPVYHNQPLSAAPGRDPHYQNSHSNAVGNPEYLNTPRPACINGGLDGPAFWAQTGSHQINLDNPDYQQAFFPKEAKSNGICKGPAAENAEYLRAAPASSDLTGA

Row | Compound | EC50 [1] | EC50 [2] | Inhibition of TSH binding to human thyroid membrane (in words) [2] | EC50 [3] | Inhibition of TSH-mediated cAMP generation (in words) (FRTL5 cells [4]) | Serum samples in which TSab-stimulated cAMP was significantly inhibited (p<0.05) / samples tested (FRTL5 cells [5]) | Inhibition of TSab-stimulated cAMP generation (in words) (FRTL5 cells [5]) | Inhibition of TSab-stimulated cAMP generation (in words) (FRTL5 cells [5]; listed as (III)) | Inhibition of TSab-stimulated cAMP generation (in words) (FRTL5 cells [5]; listed as (I)) | Inhibition of TSab-stimulated cAMP generation (in words) (FRTL5 cells [5]; listed as (II))
1 | EGF: purified murine epidermal growth factor, unlabeled | 0.000252 µM |  |  |  |  |  |  |  |  | 
2 | C[C@@H](O)[C@H](NC(=O)[C@H](CS)NC(=O)[C@H](Cc1ccc(O)cc1)NC(=O)[C@H](CC(N)=O)NC(=O)[C@@H](NC(=O)[C@@H](N)CCCCN)[C@@H](C)O)C(=O)N[C@@H](CCCCN)C(=O)N1CCC[C@H]1C(=O)N[C@@H](CCC(N)=O)C(=O)N[C@@H](CCCCN)C(=O)N[C@@H](CO)C(=O)N[C@@H](Cc1ccc(O)cc1)C(=O)O [β101-112, Lys-Thr-Asn-Tyr-Cys-Thr-Lys-Pro-Gln-Lys-Ser-Tyr] (H-KTNYCTKPQKSY-OH) |  | 80 ± 9 µM | inhibit binding of TSH to human thyroid membrane | 106 ± 8.7 µM | effectively inhibit TSH-mediated cAMP generation | 10/11 | significantly inhibited cAMP production | inhibitory effect |  | 
3 | CC[C@H](C)[C@H](NC(=O)[C@H](Cc1c[nH]cn1)NC(=O)[C@H](CCSC)NC(=O)[C@@H](NC(=O)[C@H](Cc1ccc(O)cc1)NC(=O)[C@H](CCC(=O)O)NC(=O)[C@@H](NC(=O)[C@@H]1CCCN1C(=O)[C@@H](NC(=O)[C@H](CS)NC(=O)[C@@H](N)Cc1ccccc1)[C@@H](C)CC)[C@@H](C)O)[C@@H](C)O)C(=O)N[C@@H](CCC(=O)O)C(=O)N[C@@H](CCCNC(=N)N)C(=O)N[C@@H](CCCNC(=N)N)C(=O)N[C@@H](CCC(=O)O)C(N)=O [β1-15, Phe-Cys-Ile-Pro-Thr-Glu-Tyr-Thr-Met-His-Ile-Glu-Arg-Arg-Glu] (H-FCIPTEYTMHIERRE-NH2; N-terminus assumed) |  | 331 ± 45 µM |  | 1160 ± 431 µM | effectively inhibit TSH-mediated cAMP generation | 12/12 | significantly inhibited cAMP production |  | inhibitory effect | 
4 | CC[C@H](C)[C@H](NC(=O)[C@H](CC(=O)O)NC(=O)[C@H](CCCNC(=N)N)NC(=O)[C@@H](NC(=O)[C@H](CCSC)NC(=O)[C@@H](N)CS)[C@@H](C)O)C(=O)N[C@@H](CC(N)=O)C(=O)NCC(=O)N[C@@H](CCCCN)C(=O)N[C@@H](CC(C)C)C(=O)N[C@@H](Cc1ccccc1)C(=O)N[C@@H](CC(C)C)C(=O)N1CCC[C@H]1C(=O)N[C@@H](CCCCN)C(=O)N[C@@H](Cc1ccc(O)cc1)C(N)=O [β31-45] (H-CMTRDINGKLFLPKY-NH2) |  | 186 ± 25 µM |  | 200 ± 36 µM |  |  |  |  |  | 
5 | CC[C@H](C)[C@H](N)C(=O)N[C@@H](CCC(=O)O)C(=O)N[C@@H](CCCNC(=N)N)C(=O)N[C@@H](CCCNC(=N)N)C(=O)N[C@@H](CCC(=O)O)C(=O)N[C@@H](CS)C(=O)N[C@@H](C)C(=O)N[C@@H](Cc1ccc(O)cc1)C(=O)N[C@@H](CS)C(=O)N[C@@H](CC(C)C)C(=O)N[C@H](C(=O)N[C@H](C(=O)N[C@@H](CC(N)=O)C(=O)N[C@H](C(=O)N[C@H](C(N)=O)[C@@H](C)O)[C@@H](C)O)[C@@H](C)CC)[C@@H](C)O [β11-25] (H-IERRECAYCLTINTT-NH2) |  | > 1000 µM | inactive | 186 ± 28 µM |  |  |  |  |  | 
6 | CC(C)C[C@H](N)C(=O)N[C@@H](CO)C(=O)N[C@@H](CS)C(=O)N[C@@H](CCCCN)C(=O)N[C@@H](CS)C(=O)NCC(=O)N[C@@H](CCCCN)C(=O)N[C@@H](CS)C(=O)N[C@@H](CC(N)=O)C(=O)N[C@H](C(=O)N[C@@H](CC(=O)O)C(=O)N[C@@H](Cc1ccc(O)cc1)C(=O)N[C@@H](CO)C(=O)N[C@@H](CC(=O)O)C(=O)N[C@@H](CS)C(N)=O)[C@@H](C)O [β81-95, Leu-Ser-Cys-Lys-Cys-Gly-Lys-Cys-Asn-Thr-Asp-Tyr-Ser-Asp-Cys] (H-LSCKCGKCNTDYSDC-NH2; N-terminus assumed) |  |  | inhibit binding of TSH to human thyroid membrane |  | effectively inhibit TSH-mediated cAMP generation | 10/11 | significantly inhibited cAMP production |  |  | inhibitory effect
